Laboratory results as given in ChEMBL document CHEMBL1140682, “A novel series of potent cytotoxic agents targeting G2/M phase of the cell cycle and demonstrating cell killing by apoptosis in human breast cancer cells” (Bioorg Med Chem Lett, 2007).
The source made the active and inactive calls. No cut-off for these calls is given here.

Tests used:
[1] = tested on: MDA-MB-468; test: Inhibition of human ER negative MDA-MB-468 cells by MTT assay; type: functional, cell-based
[2] = tested on: MDA-MB-468; test: Induction of apoptosis in MDA-MB-468 cells assessed as nuclear condensation at 8.0 uM after 24 hrs by electron microscopy; type: functional, cell-based; settings: Homo sapiens
[3] = tested on: MDA-MB-468; test: Induction of apoptosis in MDA-MB-468 cells assessed as alteration in p53 localization; type: functional, cell-based; settings: Homo sapiens
[4] = tested on: MDA-MB-468; test: Cell cycle arrest in MDA-MB-468 cells by accumulation at G0/G1 phase at 4.0 uM after 24 hrs; type: functional, Homo sapiens
[5] = tested on: MDA-MB-468; test: Cell cycle arrest in MDA-MB-468 cells by accumulation at G2/M phase at 8.0 uM after 24 hrs; type: functional, Homo sapiens
[6] = tested on: MDA-MB-468; test: Cell cycle arrest in MDA-MB-468 cells by accumulation at S phase at 0.5 uM after 24 hrs; type: functional, Homo sapiens
[7] = tested on: MDA-MB-468; test: Cell cycle arrest in MDA-MB-468 cells by accumulation at G0/G1 phase at 8.0 uM after 24 hrs; type: functional, Homo sapiens
[8] = tested on: MDA-MB-468; test: Induction of apoptosis in MDA-MB-468 cells assessed as p53 levels at 8.0 uM; type: functional, cell-based; settings: Homo sapiens
[9] = tested on: MDA-MB-468; test: Induction of apoptosis in MDA-MB-468 cells assessed as blebbing at 8.0 uM after 24 hrs by electron microscopy; type: functional, cell-based; settings: Homo sapiens
[10] = tested on: MDA-MB-468; test: Cell cycle arrest in MDA-MB-468 cells by accumulation at S phase at 8.0 uM after 24 hrs; type: functional, Homo sapiens
[11] = tested on: MDA-MB-468; test: Induction of apoptosis in MDA-MB-468 cells assessed as DNA fragmentation after 24 hrs by TUNEL assay; type: functional, cell-based; settings: Homo sapiens
[12] = tested on: MDA-MB-468; test: Induction of apoptosis in MDA-MB-468 cells assessed as apoptotic bodies at 8.0 uM after 24 hrs by electron microscopy; type: functional, cell-based; settings: Homo sapiens
[13] = tested on: MDA-MB-468; test: Cell cycle arrest in MDA-MB-468 cells by accumulation at G0/G1 phase at 0.5 uM after 24 hrs; type: functional, Homo sapiens
[14] = tested on: MDA-MB-468; test: Cell cycle arrest in MDA-MB-468 cells by accumulation at G2/M phase at 1.0 to 2.0 uM by flow cytometry; type: functional, cell-based; settings: Homo sapiens
[15] = tested on: MDA-MB-468; test: Cell cycle arrest in MDA-MB-468 cells by accumulation at G2/M phase at 4.0 uM after 24 hrs; type: functional, Homo sapiens
[16] = tested on: MDA-MB-468; test: Induction of apoptosis in MDA-MB-468 cells assessed as vacuolization at 8.0 uM after 24 hrs by electron microscopy; type: functional, cell-based; settings: Homo sapiens
[17] = tested on: MDA-MB-468; test: Cell cycle arrest in MDA-MB-468 cells by accumulation at S phase at 4.0 uM after 24 hrs; type: functional, Homo sapiens
[18] = tested on: MDA-MB-468; test: Cell cycle arrest in MDA-MB-468 cells by accumulation at G2/M phase at 0.5 uM after 24 hrs; type: functional, Homo sapiens

- IC50 [1]: 1600 nM
Structure (SMILES): c1ccc(Sc2nc(Sc3ccccn3)nc(Sc3ccccn3)n2)nc1
- Activity [2]: Active
- Activity [3]: Dose-dependent effect
- Activity [4]: 33.6%
- Activity [5]: 42.9%
- Activity [6]: 29.2%
- Activity [7]: 36.3%
- Activity [8]: inactive
- Activity [9]: Active
- Activity [10]: 20.8%
- Activity [11]: Dose-dependent effect
- Activity [12]: Active
- Activity [13]: 49%
- Activity [14]: Active
- Activity [15]: 40.5%
- Activity [16]: Active
- Activity [17]: 25.9%
- Activity [18]: 21.8%
